In patent US11331375B2, “Compositions and methods for regulating leukocyte adhesion” (University of Virginia Patent Foundation, priority 2015, dated 2022):

Experiments:
Panx1 channels in HUVEC = target: T1, Panx1 channels in HUVEC (Homo sapiens, UniProt Q96RD7); test: YO-PRO-1 dye uptake assay; type: cell-based; conditions: TNFα 30 minutes, dose dependent
T1 construct: Primary human umbilical vein endothelial cells (HUVEC) were purchased from Cell Applications; PromoCell 200K-05; C-12231; host or cells: HUVEC, HSaVEC (primary human venous endothelial cells)
T1 sequence (Q96RD7 whole entry): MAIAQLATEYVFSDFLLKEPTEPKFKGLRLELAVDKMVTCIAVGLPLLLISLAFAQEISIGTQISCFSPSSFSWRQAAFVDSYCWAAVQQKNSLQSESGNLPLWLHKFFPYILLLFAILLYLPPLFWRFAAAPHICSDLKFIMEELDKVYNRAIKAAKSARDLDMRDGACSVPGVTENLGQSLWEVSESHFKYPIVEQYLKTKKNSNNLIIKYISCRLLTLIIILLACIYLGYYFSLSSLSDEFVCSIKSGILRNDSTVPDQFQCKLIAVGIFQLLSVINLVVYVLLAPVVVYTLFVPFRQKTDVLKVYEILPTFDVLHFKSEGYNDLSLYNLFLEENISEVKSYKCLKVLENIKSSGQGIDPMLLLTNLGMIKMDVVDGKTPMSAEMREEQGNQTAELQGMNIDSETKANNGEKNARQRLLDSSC
Experimental: HUVECs were cultured on poly-L-lysine coated coverslips and grown to confluence in EGM. Cells were washed three times with 1× PBS and incubated in fresh EGM for 30 minutes prior to stimulation. To stimulate YO-PRO-1 dye uptake, YO-PRO-1 (1 μM) was added to the media and EC monolayers were treated with TNFα at a range of concentrations (0.1 ng/mL-100 ng/mL) for 30 minutes. At the end of the stimulation, cells were washed 3× with 1× PBS and immediately fixed in 4% PFA. Coverslips were then mounted on microscope slides with DAPI ProlongGold mounting agent and visualized on an Olympus IX81 laser scanning confocal microscope. Dye uptake was quantified as the intensity of YO-PRO-1 fluorescence over time using ImageJ software. For time course analysis, YO-PRO-1 was added to the culture media at various time points after TNFα stimulation and incubated to the 30-minute time point. Data are expressed as mean±SEM (n=3 independent experiments).

Panx1 = test: Western blot of pY198Panx1 in isolated mesenteric venules; type: cell-based, mouse; conditions: mesenteric venules perfused with TNFα 50 ng/mL 30 minutes
Experimental: Following stimulation with TNFα (in vitro: 10 ng/mL; ex vivo: 50 ng/mL), confluent endothelial cell monolayers or isolated mesenteric venules were homogenized in ice cold Triton extraction buffer (50 mM Tris-HCL, 150 mM NaCl , 5 mM EDTA, 1% deoxycholate, 1% NP-40 and 1% Triton-X100 in phosphate buffered saline and pH adjusted to 7.4) containing protease and phosphatase inhibitors. Cell/Tissue lysates were incubated with rotation at 4° C. for 20 minutes to solubilize proteins, followed by centrifugation for 5 minutes at 13,000× g to pellet cell debris. Protein concentration was quantified using the BCA method. 15-20 μg of total protein was subjected to SDS gel electrophoresis using 4-12% Bis-Tris gels (Invitrogen) and transferred to nitrocellulose membranes for immunoblotting. Membranes were blocked for 1 hr at room temperature with LiCOR blocking solution, then incubated overnight at 4° C. with primary antibodies against pY416SFKs, (BD Biosciences; 1:1000) pY198Panx1 (Alpha Diagnostic Intl (ADI); 1:1000) and GAPDH (Sigma; 1:10,000) or an antibody against the intracellular loop of Panx1 (Panx1-IL) (ADI; 1:1000) (normalization controls). Membranes were then washed and incubated with LiCOR secondary antibodies (1:10,000) and visualized and quantitated using LiCOR Odyssey. […] Data are expressed as mean±SEM (n=3 independent experiments).

HCoAEC = test: In vitro ATP release assay, HCoAEC; type: cell-based, human
Experimental: In vitro Human arterial and venous ECs were seeded in 24-well plates pre-coated with 0.2% gelatin and grown to confluency. On the day of experiment, the media was removed from each well and cells were carefully washed twice with warm serum free basal EC medium supplemented with 1% BSA. Cells were then incubated in 300 μL of fresh basal EC medium supplemented with 1% BSA for 30 minutes at 37° C. to allow degradation of extracellular ATP released due to mechanical stimulation during washes. Endogenous ecto-nucleotidases were inhibited by incubating EC monolayers with 300 μM ARL 67156 (Tocris) for 30 minutes at 37° C. Cells were then stimulated with recombinant human TNFα (R&D Systems). For dose response experiments, ECs were incubated with 0.1, 1, 5, 10, 50, or 100 ng/mL recombinant TNFα for 30 minutes at 37° C. […] The role of caspase activation was assessed by inhibition with the pan-caspase blocker Q-VD-OPh (100 μM; Sigma). […] Using a FluoStar Omega luminometer, 50 μL of luciferin:luciferase reagent (ATP bioluminescence assay kit HSII; Roche) was injected into each well and luminescence was recorded following a 5s orbital mix. ATP concentration in each sample was calculated from a standard curve for all experiments. Data are presented as a % change in ATP release from baseline (i.e. unstimulated cells) and expressed as mean±SEM (n=5 independent experiments with triplicate measurements).

HSaVEC = test: In vitro ATP release assay (luciferin:luciferase), HSaVEC; type: cell-based, human; conditions: HSaVEC monolayers
Experimental: In vitro Human arterial and venous ECs were seeded in 24-well plates pre-coated with 0.2% gelatin and grown to confluency. On the day of experiment, the media was removed from each well and cells were carefully washed twice with warm serum free basal EC medium supplemented with 1% BSA. Cells were then incubated in 300 μL of fresh basal EC medium supplemented with 1% BSA for 30 minutes at 37° C. to allow degradation of extracellular ATP released due to mechanical stimulation during washes. Endogenous ecto-nucleotidases were inhibited by incubating EC monolayers with 300 μM ARL 67156 (Tocris) for 30 minutes at 37° C. Cells were then stimulated with recombinant human TNFα (R&D Systems). For dose response experiments, ECs were incubated with 0.1, 1, 5, 10, 50, or 100 ng/mL recombinant TNFα for 30 minutes at 37° C. For time-course experiments, ECs were stimulated with 10 ng/mL recombinant TNFα for different time points up to 1 hour. In experiments where pharmacological inhibitors were employed, ECs were incubated with antagonists in parallel with ARL 67156 for 30 minutes. To inhibit TNFR1, ECs were incubated with the peptide antagonist of the receptor WP9QY (10 μM; Anaspec). […] Cx hemichannels were inhibited with lanthanum (La^3+; 100 μM; Sigma) and Panx1 channels were blocked with carbenoxolone (CBX; 50 μM; Sigma) and the inhibitory peptide ^10panx1 (200 μM; Genscript). […] The role of caspase activation was assessed by inhibition with the pan-caspase blocker Q-VD-OPh (100 μM; Sigma). Following stimulation with TNFα or vehicle, 150 μL of the cell supernatant was collected and immediately placed into pre-chilled 1.5 mL Eppendorf tubes on ice. All samples were centrifuged at 10,000×g for 5 minutes and 50 μL of each sample was transferred to a white, opaque 96-well plate. Using a FluoStar Omega luminometer, 50 μL of luciferin:luciferase reagent (ATP bioluminescence assay kit HSII; Roche) was injected into each well and luminescence was recorded following a 5s orbital mix. ATP concentration in each sample was calculated from a standard curve for all experiments. Data are presented as a % change in ATP release from baseline (i.e. unstimulated cells) and expressed as mean±SEM (n=5 independent experiments with triplicate measurements).

[1] = system: paired mesenteric arterioles; test: Ex vivo vascular perfusion ATP release assay, mesenteric arterioles; type: cell-based, mouse; conditions: TNFα 50 ng/mL
Experimental: For isolated blood vessel experiments, 2nd order venules or arterioles were dissected from the mouse mesentery circulation and cannulated on glass micropipettes to access the vessel lumen. […] Vessels were then perfused with MOPS PSS containing 300 μM ARL 67156 +/− pharmacological inhibitors and incubated for an additional 20 minutes prior to perfusion with MOPS PSS containing recombinant murine TNFα (R&D Systems). Aliquots of the lumenal perfusate were collected every 5 minutes for a 25-minute period and the ATP concentration was quantified by bioluminescence as described above. Data are expressed as mean±SEM (n=4 independent experiments).

TNFα
intracellular YO-PRO-1 dye accumulation (Panx1 channels in HUVEC): significant increase
phosphorylation of Panx1 (Panx1): promoted phosphorylation of Panx1
ATP release on cytokine stimulation (HCoAEC): failed to release ATP
ATP release on cytokine stimulation (HSaVEC): significant increase
ATP accumulation in the perfusate on cytokine perfusion [1]: absent
